The values that follow come from US20170189445A1, “XENON ASSOCIATED WITH AN NMDA RECEPTOR ANTAGONIST FOR CONTROLLING TUMOR PROLIFERATION IN THE CENTRAL NERVOUS SYSTEM” (L'Air Liquide, Société Anonyme pour I'Etude et …, priority 2014, published 2017).

Assay [1] concerns glial cells of astrocyte type and/or precursors thereof in the presence of neuronal cells. Nature of the assay: Cell proliferation by tritiated thymidine incorporation in neuron-glia mixed (mesencephalon) cultures. Type of assay: cell-based, rat. The arrangement: key to Inhibition of proliferation: an absence of response is represented by a “−” sign, synonymous with non-efficacy with respect to cell proliferation; +: a favorable response, synonymous with inhibition of the proliferation of glial cells of astrocyte type; ++: a favorable response, synonymous with inhibition of the proliferation of glial cells of astrocyte type; +++: a favorable response, synonymous with inhibition of the proliferation of glial cells of astrocyte type; ++++=absence of proliferation. As to the method:
Cultures are prepared from mesencephalon of rat embryos taken from female Wistar rats, on day 15.5 of gestation. The use of the mesencephalon cultures comprises obtaining a homogeneous cell suspension by mechanical dissociation, i.e. non-enzymatic dissociation, of the embryonic tissue, using Leibovitz L15 medium (Sigma Aldrich). Aliquots of this suspension are added to Nunc 48-well multiwell plates, which have been precoated with a thin layer of polyethyleneimine (1 mg/ml, borate buffer, pH 8.3) so as to enable adhesion of the neuronal cells (cf. Toulorge et al., Faseb J, 2011). The seeding density is between approximately 80 000 and 100 000 cells/culture well. The mesencephalon cultures are maintained in MEM culture medium, containing 1 g/l of glucose, 2 mM of L-glutamine, 1 mM of sodium pyruvate, non-essential amino acids and a penicillin/streptomycin cocktail. During the first week of culture, this medium also contains 10% of fetal calf serum (FCS, Biowest) and 10% of horse serum (HS, Sigma Aldrich), but from the second week, the concentrations of the two sera are reduced (Gao et al., J Neurosci, 2002). Up to the time when the effects of the gases of interest are evaluated, the cultures are placed in a conventional enclosure thermostatically controlled at 37° C., in which the CO2 is maintained at 5% by volume and wherein the atmosphere is saturated with water. The glial proliferation process occurs as soon as the cells are placed in culture. It is analyzed during the second week in vitro when the serum supplementation is reduced to 2% or in some cases to 0.1%. After reduction of the FCS and HS concentrations on D7, the NMDA receptor blocker, memantine, is added to the cultures before placing them under a controlled gaseous atmosphere. Once the pharmacological treatments have been carried out, the multiwell plates containing the cells in culture and the plate used for humidifying the internal compartment of the chamber are placed on a metal base which receives the Plexiglas incubation chamber. The two parts (base and Plexiglas chamber) are butt-joined together by screwing. A gas mixture of interest comprising (% by volume): 20% of O2, 5% of CO2 and 75% of gas tested is then injected into the incubation chamber, with open inlet and outlet valves, while at the same time controlling the output flow rate by means of a flow meter. The gases tested are nitrogen and xenon. The reference output flow rate, set for air at 10 liters/min, is corrected according to the density of the mixture used. When the CO2 measurement reaches 5% at the outlet, the injection of the gas mixture is stopped and the chamber is made totally airtight by closing the inlet and outlet valves. The exposure chamber is then placed in an enclosure at 37° C. for the 7 days of the experimental protocol. On D14, after the […] been broken by opening the inlet and outlet valves and unscrewing the incubation chamber from its base, the cultures are subjected to the tritiated-thymidine proliferation test according to the protocol described in example 1, using as a basis the technique described by Rousseau and colleagues (Mol. Pharmacol., 2013). […] Some experiments were also carried out by reducing the concentrations of the 2 types of serum to 0.1%, while maintaining the cells under a nitrogen-enriched or xenon-enriched atmosphere. The cultures are then recovered for a cell proliferation measurement using tritiated thymidine. […]

Assay [2] concerns glial cells of astrocyte type and/or precursors thereof. Nature of the assay: Cell proliferation by tritiated thymidine accumulation in astrocyte-enriched cultures (FCS mitogens). Type of assay: cell-based, rat. Details: key to Reduction in proliferation: an absence of response is represented by a “−” sign, synonymous with non-efficacy with respect to cell proliferation; +: a favorable response, synonymous with inhibition of the proliferation of glial cells of astrocyte type; ++: a favorable response, synonymous with inhibition of the proliferation of glial cells of astrocyte type; +++: a favorable response, synonymous with inhibition of the proliferation of glial cells of astrocyte type; ++++=absence of proliferation. As to the method:
Cultures are prepared from total brain of embryos, taken from gestating Wistar female rats on day 15.5 of gestation. The method for producing the cultures enriched with astrocytes (cells immunopositive for glial fibrillary acidic protein or GFAP) comprises obtaining a homogeneous cell suspension of the entire embryonic anterior brain by mechanical dissociation, i.e. non-enzymatic dissociation, using Leibovitz L15 medium (Sigma Aldrich). […] The medium used is Minimum Essential Medium (MEM), containing 10% of fetal calf serum (FCS, Biowest) and 10% of horse serum (HS, Sigma Aldrich), 1 g/l of glucose, 2 mM of L-glutamine, 1 mM of sodium pyruvate, non-essential amino acids, and a penicillin/streptomycin cocktail. When confluence is reached (i.e. after 7-10 days of culture), the adherent cells (>90% of astrocytes) are placed in PBS, then detached by tapping the flasks. […] The astrocytes are then cultured in 48-well multiwell plates (Nunc). Approximately 30 000 cells are applied per culture well. The cells are placed in the presence of the same medium as previously, but with a serum supplementation, reduced to 2%. No change of culture medium is carried out throughout the culture period. The proliferation is triggered and maintained by the presence of FCS in the culture medium. The NMDA receptor blocker, memantine (RD Systems), is added to the cultures just before exposure to the xenon. Dibutyryl cyclic AMP (dbcAMP), a lipophilic form of cAMP used as a reference anti-proliferative molecule (Mourlevat et al., Mol Pharmacol, 2003), is added at the same time as the memantine. Once the pharmacological treatments have been carried out, the multiwell dish plates containing the cells in culture and the plate used to humidify the internal compartment of the chamber are placed on a metal base which receives the Plexiglas incubation chamber. The two parts (base and Plexiglas chamber) are butt-joined together by screwing. A gas mixture of interest comprising (% by volume): 20% of O2, 5% of CO2 and 75% of the gas tested is then injected into the incubation chamber, with open inlet and outlet valves, while at the same time controlling the output flow rate by means of a flow meter. The gases tested are nitrogen and xenon. The reference output flow rate, set for air at 10 liters/min, is corrected according to the density of the mixture used. When the CO2 measurement reaches 5% at the outlet, the injection of the gas mixture is stopped and the chamber is made totally airtight by closing the inlet and outlet valves. The exposure chamber is then placed in an enclosure at 37° C. throughout the experimental protocol. After the […] been broken by opening the inlet and outlet valves and unscrewing the chamber from its base, the cultures are placed in the presence of PBS containing 5 mM of glucose and incubated for 2 h with tritiated thymidine (Perkin, 70-90 Ci/mmol; 0.5 μCi/well) in order to analyze the cell proliferation according to a method previously described by Rousseau and colleagues (Mol Pharmacol, 2013). […] These cultures were maintained, as soon as they were placed in culture and up to D3 in vitro, in an atmosphere containing 75% of nitrogen (N2 75) or 75% of xenon (Xe 75), in the presence or absence of memantine (MEM), […] analog of cAMP, dibutyryl-cAMP, used as reference anti-proliferative molecule. At the end of the treatments, the cultures are recovered for a cell proliferation measurement, using tritiated thymidine incorporation as evaluation index. The results are expressed in % (±SEM, n=6) of the mean values of the cultures maintained under 75% of nitrogen (control condition).

Consider `CC12CC3CC(C)(C1)CC(N)(C3)C2` [Memantine, memantine], for which the Inhibition of proliferation result in assay [1] (10 μM, 75% N2, sera at 2%, D7-D14) is recorded as “−”. The “impact on the proliferation” value in assay [1] (memantine applied under nitrogen) was “no impact on the proliferation”. Besides, the anti-proliferative effect in assay [2] (30 pM (so in the source), nitrogen-enriched atmosphere) is −39.3%; in assay [2] (30 pM (so in the source), xenon-enriched atmosphere), −75.2%; in assay [2] (10 μM, xenon-enriched atmosphere, vs cultures under 75% nitrogen), −42.5%; in assay [2] (nitrogen-enriched atmosphere, up to 10 μM), “no anti-proliferative effect”. The Reduction in proliferation entry is given as “−” in assay [2] (1 μM, 75% N2, D0-D3); “−” in assay [2] (1 μM, 75% Xe, D0-D3); “−” in assay [2] (3 μM, 75% N2, D0-D3); “−” in assay [2] (3 μM, 75% Xe, D0-D3); “−” in assay [2] (10 μM, 75% N2, D0-D3); “++” in assay [2] (10 μM, 75% Xe, D0-D3). Further, the Reduction in proliferation result in assay [2] (30 μM, 75% N2, D0-D3) was “++”; in assay [2] (30 μM, 75% Xe, D0-D3) it was “+++”.

For `[Xe]` [Xe, xenon], the Inhibition of proliferation entry is given as “+++” in assay [1] (75% Xe, sera at 0.1%, D7-D14) and “−” in assay [1] (75% Xe, sera at 2%, D7-D14 (7 days)). Further, in assay [1] (xenon-enriched atmosphere, no memantine), the “impact on the proliferation” value is “no impact on the proliferation”. Also, the Reduction in proliferation entry in assay [2] (75% Xe (20% O2 + 5% CO2), no drug, D0-D3 (3 days)) is on record as “−”. Further, the “anti-proliferative effect” value in assay [2] (xenon replaces nitrogen (75 vol %), no drug) is on record as “no significant anti-proliferative effect”.

With `CCCC(=O)Nc1ncnc2c1ncn2[C@@H]1O[C@@H]2COP(=O)(O)O[C@H]2[C@H]1OC(=O)CCC` [dbcAMP, Dibutyryl cyclic AMP], the Reduction in proliferation entry is listed as “++” in assay [2] (1 mM, 75% N2, D0-D3) and “++” in assay [2] (1 mM, 75% Xe, D0-D3). Also, the “proliferation in the presence of serum mitogens” value in assay [2] (atmosphere containing 75 vol % of nitrogen) is listed as “significantly reduced”.
